This is an account of results in patent US20230104124A1, “N-PALMITOYLETHANOLAMIDE AND DOCOSAHEXAENOIC ACID FOR USE IN THE TREATMENT OF AUTISM SPECTRUM DISORDER AND OTHER DEPRESSIVE SYNDROMES” (EPITECH GROUP S.P.A., priority 2021, published 2023).

The conditions of data set [1]: intravenous infusion; during the 60 hours of administration; cited from earlier work.
Data set [2] deals with BTBR mice. The data set can be described thus: Marble Burying test in BTBR mice. The following applies: per os daily for 10 days, PEA-um 1 mg/kg, DHA 5 mg/kg (30 mg/kg DHA 17% titer), 8 animals per group. Format: in vivo. An excerpt:
(§1) Healthy male C57BL/6J (C57) mice and 90-day BTBR T+tf/J (BTBR) mice (The Jackson Laboratory, Bar Harbor, ME, USA) fed ad libitum and housed in controlled sleep/wake cycle cages were used in the in vivo trial. Before the start of the experimentation, the animals were subjected to an acclimatization period of 1 week considering all the experimental procedures and protocols, compliant with the principles of care and welfare of laboratory animals approved by the Italian Ministry of Health (Italian Legislative Decree 2014/26) and European directives (EU Directive 2010/63). […]
(§2) All the values reported in the results are expressed as mean ± standard error of the mean (SEM) of N observations (N = number of animals). The statistical differences in the ALLO dosage and behavioral score were analyzed with one-way ANOVA, followed by Sidak’s multiple comparisons. […]

For data set [3], the system named is BTBR mice. In words: Self Grooming test in BTBR mice. It is filed as in vivo. The settings on record: monitored for 20 minutes, per os daily for 10 days, PEA-um 1 mg/kg, DHA 5 mg/kg (30 mg/kg DHA 17% titer).
Description: as §1, §2
In the Self Grooming test, the mice were placed in an empty plexiglass cage (30x40 cm) and allowed to freely explore the arena. After 10 minutes of acclimatization, self grooming activity was monitored for 20 minutes. […]

The subject of data set [4] is BTBR mice. In words: Sociability, three-chamber test in BTBR mice. The settings on record: per os daily for 10 days, PEA-um 1 mg/kg, DHA 5 mg/kg (30 mg/kg DHA 17% titer). Format: in vivo.
Description: as §1, §2
(§3) In the last 10-minute phase, the preference of the mouse in staying in the empty chamber or in the presence of the mouse was evaluated (Crawley JN, Designing mouse behavioral tasks relevant to autistic-like behaviors, Ment. Retard Dev. Disabil. Res. Rev. 2004, 10: 248-258). The time spent in each chamber was detected by a camera coupled to video tracking software.

Another data set relates to C57 mice. The data set can be described thus: Sociability, three-chamber test in healthy C57 mice. The following applies: per os daily for 10 days, PEA-um 1 mg/kg, DHA 5 mg/kg (30 mg/kg DHA 17% titer). It is filed as in vivo.
Description: as §1, §2, §3

The subject of another data set is plasma ALLO levels. The data set can be described thus: Plasma ALLO neurosteroid levels in BTBR mice. It is filed as in vivo. The settings on record: plasma 10 days after starting daily per os treatment, PEA-um 1 mg/kg, DHA 5 mg/kg (30 mg/kg DHA 17% titer).
Description: as §1, §2

Data set [5] deals with mice with a simil-autistic phenotype. The settings on record: cited from earlier work.
Another data set deals with autistic children. The settings on record: PEA-um 600 mg/day, 3-month treatment; cited from earlier work.

Take `CC(=O)[C@H]1CC[C@H]2[C@@H]3CC[C@H]4C[C@H](O)CC[C@]4(C)[C@H]3CC[C@]12C` [Zulresso, allopregnanolone]: in data set [1], the Risks during administration result is “risk of excessive sedation, sudden loss of consciousness or dizziness”.
Consider `CCCCCCCCCCCCCCCC(=O)NCCO` [PEA-um, N-palmitoylethanolamide], for which the “Number of marbles buried in 15 min (obsessive behavior)” value with BTBR mice [2] is “obsessively bury the marbles”. Also, the “Time spent self-grooming (repetitive behavior)” value in the data set with BTBR mice [3] is recorded as “did not demonstrate any reduction in the time (s) spent self-grooming”. For the same compound, the “Sociability (time spent in empty chamber or chamber occupied by a mouse)” value with BTBR mice [4] is “did not demonstrate social improvements”; with C57 mice, “enhanced sociability to another mouse”. Moreover, in the data set on plasma ALLO levels, the “Plasma ALLO levels” value is “significant reduction in plasma ALLO levels”. Besides, in data set [5], the Altered behavioral status entry is “modulating the altered behavioral status”. In addition, the “Expression of pro-inflammatory hippocampal and serum cytokines IL-6, IL-1b and TNF-a” value in data set [5] is “reducing the expression of the pro-inflammatory hippocampal and serum cytokines IL-6, IL-1b and TNF-a”. Besides, the “Clinical effect on autistic symptoms” value in the data set with autistic children is “improves aggressiveness, cognitive and behavioral skills, and communication”.
